Assays:
Experiment in all cases: relative viability (nuclei count vs DMSO), 5 days (fraction); higher = more cells survive
CX-5461 + Olaparib = compound: Cc1cnc(CNC(=O)c2c(=O)c3ccc(N4CCCN(C)CC4)nc3n3c2sc2ccccc23)cn1 [CX-5461] + O=C(c1cc(Cc2n[nH]c(=O)c3ccccc23)ccc1F)N1CCN(C(=O)C2CC2)CC1 [Olaparib] (partner 8 µM)
Procedure, shortened: (§1)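 Values are medians from duplicate plates. Each reflects relative viability, defined as the nuclei count of treated wells over that of vehicle wells. Lung cancer cell lines in 1536-well plates were pin-tool dosed one day after seeding with one drug alone or with a fixed anchor-drug dose plus five library-drug doses (not always all listed) in √10 steps, then fixed, stained and imaged at 4× after 5 days.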

CX-5461 + Luminespib = compound: Cc1cnc(CNC(=O)c2c(=O)c3ccc(N4CCCN(C)CC4)nc3n3c2sc2ccccc23)cn1 [CX-5461] + CCNC(=O)c1noc(-c2cc(C(C)C)c(O)cc2O)c1-c1ccc(CN2CCOCC2)cc1 [Luminespib] (partner 0.01 µM)
Procedure, shortened: as §1

IMD-0354 + AZD7762 = compound: O=C(Nc1cc(C(F)(F)F)cc(C(F)(F)F)c1)c1cc(Cl)ccc1O [IMD-0354] + NC(=O)Nc1cc(-c2cccc(F)c2)sc1C(=O)N[C@H]1CCCNC1 [AZD7762] (partner 0.2 µM)
Procedure, shortened: as §1

IMD-0354 + Pictilisib = compound: O=C(Nc1cc(C(F)(F)F)cc(C(F)(F)F)c1)c1cc(Cl)ccc1O [IMD-0354] + CS(=O)(=O)N1CCN(Cc2cc3nc(-c4cccc5[nH]ncc45)nc(N4CCOCC4)c3s2)CC1 [Pictilisib] (partner 1 µM)
Procedure, shortened: as §1

| Cell Line | relative viability (CX-5461 + Olaparib; first compound 0.01 µM) | relative viability (CX-5461 + Olaparib; first compound 0.03162 µM) | relative viability (CX-5461 + Olaparib; first compound 0.1 µM) | relative viability (CX-5461 + Olaparib; first compound 0.3162 µM) | relative viability (CX-5461 + Olaparib; first compound 1 µM) | relative viability (CX-5461 + Luminespib; first compound 0.01 µM) | relative viability (CX-5461 + Luminespib; first compound 0.03162 µM) | relative viability (CX-5461 + Luminespib; first compound 0.1 µM) | relative viability (CX-5461 + Luminespib; first compound 0.3162 µM) | relative viability (CX-5461 + Luminespib; first compound 1 µM) | relative viability (IMD-0354 + AZD7762; first compound 0.04 µM) | relative viability (IMD-0354 + AZD7762; first compound 0.1265 µM) | relative viability (IMD-0354 + AZD7762; first compound 0.4 µM) | relative viability (IMD-0354 + AZD7762; first compound 1.265 µM) | relative viability (IMD-0354 + AZD7762; first compound 4 µM) | relative viability (IMD-0354 + Pictilisib; first compound 0.04 µM) | relative viability (IMD-0354 + Pictilisib; first compound 0.1265 µM) | relative viability (IMD-0354 + Pictilisib; first compound 0.4 µM) | relative viability (IMD-0354 + Pictilisib; first compound 1.265 µM) | relative viability (IMD-0354 + Pictilisib; first compound 4 µM) |
| --- | --- | --- | --- | --- | --- | --- | --- | --- | --- | --- | --- | --- | --- | --- | --- | --- | --- | --- | --- | --- |
| NCI-H1734 | 0.662 | 0.67 | 0.633 | 0.553 | 0.511 | 0.182 | 0.148 | 0.193 | 0.173 | 0.157 | 0.573 | 0.565 | 0.417 | 0.198 | 0.152 | 0.495 | 0.51 | 0.339 | 0.209 | 0.143 |
| NCI-H2126 | 0.956 | 0.974 | 0.924 | 0.968 | 0.863 | 0.883 | 0.848 | 0.908 | 0.847 | 0.411 | 1.24 | 1.05 | 0.697 | 0.566 | 0.346 | 0.527 | 0.478 | 0.471 | 0.353 | 0.302 |
| EMC-BAC-2 | 0.452 | 0.476 | 0.383 | 0.343 | 0.324 | 1.14 | 1.27 | 1.15 | 1.11 | 0.756 | 1.19 | 1.13 | 0.822 | 0.443 | 0.433 | 0.647 | 0.545 | 0.41 | 0.416 | 0.225 |
| NCI-H1993 | 1.19 | 1.1 | 1.1 | 0.976 | 1.01 | 0.869 | 0.935 | 0.861 | 0.724 | 0.907 | 0.853 | 0.645 | 0.711 | 0.328 | 0.529 | 0.773 | 0.783 | 0.706 | 0.617 | 0.662 |
| NCI-H647 | 0.703 | 0.721 | 0.415 | 0.552 | 0.0876 | 0.192 | 0.163 | 0.169 | 0.146 | 0.108 | 0.707 | 0.531 | 0.309 | 0.0742 | 0.159 | 0.626 | 0.524 | 0.184 | 0.232 | 0.0513 |
| NCI-H1792 | 0.424 | 0.471 | 0.477 | 0.371 | 0.39 | 0.57 | 0.48 | 0.432 | 0.458 | 0.497 | 0.896 | 0.517 | 0.551 | 0.17 | 0.0979 | 0.298 | 0.225 | 0.622 | 0.203 | 0.204 |
| ChaGo-K-1 | 0.381 | 0.403 | 0.433 | 0.442 | 0.378 | 0.595 | 0.626 | 0.548 | 0.668 | 0.462 | 0.912 | 0.937 | 0.596 | 0.218 | 0.254 | 1.11 | 1.22 | 0.495 | 0.216 | 0.301 |
| LOU-NH91 | 0.973 | 0.992 | 0.901 | 0.524 | 0.704 | 0.411 | 0.354 | 0.303 |  | 0.323 | 0.827 | 0.672 | 0.284 | 0.151 | 0.266 | 0.556 | 0.591 | 0.259 | 0.203 | 0.209 |

From the supplement of paper PMC10307832
